Test results as given in patent EP0314302A2, “Herbicidal o-carbomethoxy-sulfonylureas” (E.I. DU PONT DE NEMOURS AND COMPANY, priority 1987, dated 1989).

Experiments:
[1] = test system: Kochia; experiment: Test 7 postemergence; format: in vivo, Kochia spp; conditions: scale 0-100
Protocol: (§1) Individual 11.4-cm plastic pots filled with planting medium were seeded with rape, wild radish (Raphanus raphanistruna). tansy mustard (Descurainia pinnata), ball mustard (Neslia paniculata), black mustard (Brassica nigra), yellow mustard, brown mustard, lentils, safflower, flax, sunflower, peanut, vetch, alfalfa, field bean, pea, violet (Viola spp), Kochia (Kochia spp), Russian thistle (Salsola spp), Matricaria spp, groundsel (Senecio spp), shepherdspurse (Capsella bursa-pastoris), nightshade (Solanum spp), sowthistle (Sonchus spp), sugar beet, wheat, "Bonanza" barley and "Morex" barley, Kentucky bluegrass (Poa pratensis), red clover (Trifolium pratense), dandelion (Taraxacum spp) and buckhorn plantain (Plantago lanceolata).
(§2) Plants were treated postemergence with the compound formulated with a non-phytotoxic carrier. Plants were visually rated 18 days after treatment (DAT). Response ratings were based on the scale of 0 to 100 where 0 = no effect, 20 = minimal injury and 100 = complete control.

[2] = test system: Bindweed; experiment: Test 11 windowsill flats, postemergence; format: in vivo, Convolvulus spp.; conditions: Postemergence 32 g/ha, 0.25% X-77 surfactant, scale 0-100
Protocol: (§3) Budded citrus seedlings were planted in 30-liter plastic pots which were also seeded with sandbur, guineagrass, narrowleaf panicum, common ragweed, yellow nutsedge, purple nutsedge and bindweed. Compound I was applied preemergence and postemergence to the weeds. Treatments were sprayed to simulate the trunk-to-trunk herbicide application method used in some citrus groves. The compound was also applied postemergence to weeds grown in windowsill flats. The flats were filled with planting medium and seeded with morningglory (Ipomoea spp.). purple nutsedge (Cyperus rotundus), pigweed (Amaranthus spp.), bindweed (Convolvulus spp.), narrowleaf panicum (Panicum maximum), common ragweed (Ambrosia artemisiifolia), sandbur (Cenchrus echinatus), itchgrass (Rottboellia exaltata), johnsongrass (Sorghum halepense), guineagrass (Panicum maximum), smooth crabgrass (Digitaria ischaemum), broadleaf signalgrass (Brachiaria platyphylla), bermudagrass (Cynodon dactylon), goosegrass (Eleusine indica), large crabgrass (Digitaria sanguinalis) and yellow nutsedge (Cyperus esculentus).
(§4) The compound was formulated and sprayed with 0.25% X-77 surfactant in water. Plants were visually rated 21 and 29 days after treatment and compared with appropriate controls. Injury ratings were based on the scale of 0 to 100, where 0 indicates no effect, 20 indicates minimum effect and 100 indicates complete control. […]

[3] = test system: Goosegrass; experiment: Test 11 windowsill flats, postemergence; format: in vivo, Eleusine indica; conditions: Postemergence 32 g/ha, 0.25% X-77 surfactant, scale 0-100
Protocol: as §3, §4

[4] = test system: Matricaria; experiment: Test 7 postemergence; format: in vivo, Matricaria spp; conditions: scale 0-100
Protocol: as §1, §2

[5] = test system: Bindweed; experiment: Test 11 citrus pots, postemergence to the weeds; format: in vivo, Convolvulus spp.; conditions: Postemergence 32 g/ha, 0.25% X-77 surfactant, scale 0-100
Protocol: as §3, §4

[6] = test system: Quackgrass; experiment: Test 9 postemergence; format: in vivo, Agropyron repens; conditions: scale 0-100
Protocol: Plastic windowsill pots containing planting medium were seeded with bahiagrass, bindweed (Convolvulus spp), guinea grass (Panicum maximum), large crabgrass (Digitaria sanguinalis) and pigweed (Amaranthus spp). Individual 15-cm plastic pots contained sandbur (Cenchrus echinatus), Mikania cordata, Boston fern (Nephrolepis exalata), quackgrass (Agropyron repens), elephantgrass (Pennisetum purpureum) and sowthistle (Sonchus spp) plants.
Plants were treated postemergence with Compound I formulated in a non-phytotoxic solvent. Plants were visually rated 22 days after treatment (DAT). Injury and weed control ratings were based on the scale of 0 to 100 where 0 = no effect, 20 = minimal control and 100 = complete control.

[7] = test system: Climax timothy; experiment: Test 8 postemergence safety to pineapple, turfs and weed control; format: in vivo; conditions: scale 0-100
From the text: (§5) The object of this test was to evaluate the compound of this invention for postemergence safety to pineapple, turfs and weed control. Climax timothy, Kentucky bluegrass, forage fescue, Kentucky fescue, bermudagrass, bentgrass, annual bluegrass, bahiagrass, purple nutsedge, yellow nutsedge, large crabgrass, perennial ryegrass, annual ryegrass, galium and pineapple were sprayed postemergence with the compound in a non-phytotoxic solvent. Plants were visually rated 36 days after treatment (DAT). Injury ratings were based on the scale of 0 to 100 where 0 = no effect, 20 = minimal effect and 100 = complete control.

[8] = test system: Kentucky fescue; experiment: as above; format: in vivo; conditions: scale 0-100
From the text: as §5

[9] = test system: Bahiagrass; experiment: as above; format: in vivo; conditions: scale 0-100
From the text: as §5

[10] = test system: Agropyron repens; experiment: Test 2 perennial weeds from rhizomes; format: in vivo; conditions: 0.5% v/v non-ionic surfactant, scale 0-100
Protocol: (§6) Rhizomes of Agropyron repens and Cirsium arvense were planted in 17.5-cm plastic pots and grown in the greenhouse for 5 months prior to herbicide application. Plants were 24 to 35 cm tall and releasing lateral buds at the time of treatment. Compound I was diluted in water containing 0.5% v/v non-ionic surfactant and applied to the plants. The degree of weed control was visually rated 36 days after application of the herbicide. Control ratings were based upon comparison to an untreated control using a scale of 0 to 100 where 0 indicated no effect and […] represented death of all foliar portions with no regrowth apparent.

[11] = test system: Cirsium arvense; experiment: Test 2 perennial weeds from rhizomes; format: in vivo; conditions: 0.5% v/v non-ionic surfactant, scale 0-100
Protocol: as §6

[12] = test system: Lalang; experiment: Test 9 postemergence; format: in vivo; conditions: scale 0-100
[13] = test system: Smooth crabgrass; experiment: Test 11 windowsill flats, postemergence; format: in vivo, Digitaria ischaemum; conditions: Postemergence 32 g/ha, 0.25% X-77 surfactant, scale 0-100
Protocol: as §3, §4

[14] = test system: Black mustard; experiment: Test 7 postemergence; format: in vivo, Brassica nigra; conditions: scale 0-100
Protocol: as §1, §2

[15] = test system: Common ragweed; experiment: Test 11 windowsill flats, postemergence; format: in vivo, Ambrosia artemisiifolia; conditions: Postemergence 32 g/ha, 0.25% X-77 surfactant, scale 0-100
Protocol: as §3, §4

[16] = test system: Lalang; experiment: Test 4 plantation crop weeds, postemergence; format: in vivo, Imparata cylindrica; conditions: Table 8, scale 0-100
From the text: The object of this test was to evaluate the efficacy of the compound of this invention on weeds that infest some plantation crops at different growth stages of the weeds. Asystasia intrusa, Mikania cordata, goldenrod Solidago spp, Boston fern Nephrolepis exalata, and lalang Imparata cylindrica were planted in 15-cm plastic pots. Plants were sprayed postemergence with Compound I in a non-phytotoxic solvent. The Asystasia plants ranged in growth from 4 leaves to 9 leaves and very branched, Mikania had 6 leaves to vining, the goldenrod was branching and the Boston fern was growing vigorously. The degree of weed control was visually rated 20 to 24 days after treatment (DAT). Control ratings are based on the scale of 0 to 100 where 0 = no effect, 20 = minimal control and 100 = complete control. Variations in the results of the tests could be due to the fact that the tests were run at different times of the year or due to the stage of growth of the weeds.

## COC(=O)c1cccnc1S(=O)(=O)NC(=O)Nc1nc(OC)cc(OC)n1 [Compound I, 2-[[(4,6-dimethoxypyrimidin-2-yl)aminocarbonyl]aminosulfonyl]-3-pyridinecarboxylic acid, methyl ester]
[1]; 16 g/ha
  Plant Injury Rating 18 DAT: 100
[1]; 32 g/ha
  Plant Injury Rating 18 DAT: 100
[2]
  Injury ratings: 100
[3]
  Injury ratings: 90
[4]; 16 g/ha
  Plant Injury Rating 18 DAT: 100
[4]; 32 g/ha
  Plant Injury Rating 18 DAT: 100
[5]
  Injury ratings: 100
[6]; 8 g/ha
  Plant Injury Rating 22 DAT: 70
[6]; 16 g/ha
  Plant Injury Rating 22 DAT: 90
[6]; 32 g/ha
  Plant Injury Rating 22 DAT: 100
[7]; 16 g/ha
  Plant Injury Rating 36 DAT: 100
[7]; 32 g/ha
  Plant Injury Rating 36 DAT: 100
[8]; 16 g/ha
  Plant Injury Rating 36 DAT: 100
[8]; 32 g/ha
  Plant Injury Rating 36 DAT: 100
[9]; 16 g/ha
  Plant Injury Rating 36 DAT: 70
[9]; 32 g/ha
  Plant Injury Rating 36 DAT: 100
[10]; 16 g/ha
  Control ratings 36 DAT: 85
[10]; 32 g/ha
  Control ratings 36 DAT: 90
[10]; 64 g/ha
  Control ratings 36 DAT: 95
[11]; 16 g/ha
  Control ratings 36 DAT: 40
[11]; 32 g/ha
  Control ratings 36 DAT: 50
[11]; 64 g/ha
  Control ratings 36 DAT: 50
[12]; 8 g/ha
  Plant Injury Rating 22 DAT: 0
[12]; 16 g/ha
  Plant Injury Rating 22 DAT: 0
[12]; 32 g/ha
  Plant Injury Rating 22 DAT: 20
[13]
  Injury ratings: 100
[14]; 16 g/ha
  Plant Injury Rating 18 DAT: 100
[14]; 32 g/ha
  Plant Injury Rating 18 DAT: 100
[15]
  Injury ratings: 0
[16]; 16 g/ha
  Control Rating 22 DAT: 20
[16]; 32 g/ha
  Control Rating 22 DAT: 20
[16]; 64 g/ha
  Control Rating 22 DAT: 40
